Test results: US20200055848A1, “FURANONE DERIVATES AND METHODS OF USE THEREOF” (CARNA BIOSCIENCES, INC., priority 2016, published 2020)
Values joined by “and” are separate entries in the source; they are usually repeats but may differ in a detail not shown here. Identical values can stand only once.

Tests used:
[1] = target: T1, human Cdc7/human ASK complex protein (Homo sapiens, UniProt O00311); test: Cdc7/ASK enzymatic assay; format: biochemical; settings: 5 μM ATP; mean of duplicated assays; read-out: Cdc7 IC50
T1 construct: purchased Carna Biosciences, Inc
Procedure: Measurement of Cdc7 kinase activity was carried out using MSA assay kit (QuickScout™ Screening Assist Kit, Carna Biosciences, Inc.). Assay buffer (20 mM HEPES, 0.01% Triton X-100™, 2 mM dithiothreitol, pH 7.5) was used to prepare a substrate mixture solution comprising 4 μM of kinase-reaction substrate (FITC-labeled MCM2 peptide), 40 mM MgCl2, and 4 times concentrations of final targeted ATP (5, 100, and 1,000 μM). The enzyme supplied in the kit (human Cdc7/human ASK complex protein) was diluted into the assay buffer to prepare a 7 nM solution (enzyme solution). The compound stock solution was prepared by diluting a 10 mM DMSO solution into the assay buffer (final 4% DMSO). The kinase reaction was performed by mixing of 5 μL of the compound solution, 5 μL of the substrate mixture solution, and 10 μL of the enzyme solution in a 384-well plate. For the pre-incubation assay, the compound solution and the enzyme solution were pre-mixed and incubated at ambient temperature for 30 min before adding into the substrate mixture solution to start enzymatic reaction. After the reaction at 25° C. for 5 hours, 60 μL of the termination buffer (supplied in the kit) was added to stop the reaction. The phosphorylation of substrate was measured using a LabChip EZ Reader II system (Caliper Life Sciences). The percent inhibition (%) by a tested compound was calculated according to the following formula:
Percent inhibition (%)=(1−(C−A)/(B−A))×100
A represents P/(P+S) for a blank well, B represents P/(P+S) for a solvent well, and C represents P/(P+S) for a compound-added well. S: the peak heights of the separated substrate, P: phosphorylated substrate.
The IC50 value of tested compound was calculated by regression analysis of the percent inhibition values versus the (logarithmic) concentration of the tested compound.

[2] = In vitro metabolic stability, human liver microsomes; format: in vitro ADME; settings: for HLM % (remaining % of parent compound): 30 min treatment of human liver microsomes
Procedure: (§1) NADPH regeneration system (13 mM NADP, 33 mM Glucose-6-phospate, 33 mM MgCl2, and 4 U/mL of Glucose-6-phosphate dehydrogenase) and liver microsomes (1 mg/mL of HLM (BD Gentest, lot 18888) or MLM (BD Gentest, lot 31197)) in 0.1 M phosphate buffer (pH 7.4) were pre-incubated separately at 37° C. for 20 min before mixing with 1:4 ratio. 50 μL of the mixed solution was added to 50 μL of the test compound (2 μM) to initiate the reaction at 37° C. (final conc. 1 μM test compound, 0.4 mg/mL liver microsomes, and 1.3 mM NADPH). After 30 min, the reactions were stopped by adding 300 μL of cold acetonitrile. For 0 min samples, ice-cold acetonitrile (with system suitability standard) was treated before mixing the test compound and microsomes. The sample were vortexed well and then centrifuged at 3500 rpm at 15° C. for 20 min. 110 μL of supernatant was mixed with 110 μL of water and quantitated by LC-MS/MS workstation (Shimazu Corp.).

[3] = In vitro metabolic stability, mouse liver microsomes; format: in vitro ADME; settings: for MLM % (remaining % of parent compound): 30 min treatment of mouse liver microsomes
Procedure: as §1

[4] = target: T1, human Cdc7/human ASK complex protein; test: Cdc7/ASK enzymatic assay; format: biochemical; settings: 5 μM ATP versus 10 μM ATP as printed
[5] = Stability of the ethyl ester to hydrolysis; format: physicochemical
Procedure: Because the ester was expected to form important hydrogen bond with Lys90, an SAR study for the ester group was performed (Table 2). […] Generally esters are labile and can be easily hydrolyzed to the corresponding carboxylic acid. To our surprise, the ethyl ester of 3 was very stable even under strong basic conditions, and it required an extremely strong basic condition (50% w/v KOH aq., reflux) to hydrolyze this ester.
The general procedure for the replacement of R^2 by various groups is shown in Scheme 2. Methyl ester 8 was obtained analogously to ethyl ester 3 from the furanone intermediate 39 which was prepared from methyl 4-chloroacetoacetate 37 and phenyl isocyanate 38 (Scheme 2A). Compound 9 (Scheme 2B) was obtained by hydrolysis of compound 3 under extremely strong basic condition (50% w/v KOH aq., reflux). […] The amide analogs (10-12) were prepared directly by aminolysis of ethyl ester 3 with appropriate amines (Scheme 2C).

T1 sequence (O00311 whole entry): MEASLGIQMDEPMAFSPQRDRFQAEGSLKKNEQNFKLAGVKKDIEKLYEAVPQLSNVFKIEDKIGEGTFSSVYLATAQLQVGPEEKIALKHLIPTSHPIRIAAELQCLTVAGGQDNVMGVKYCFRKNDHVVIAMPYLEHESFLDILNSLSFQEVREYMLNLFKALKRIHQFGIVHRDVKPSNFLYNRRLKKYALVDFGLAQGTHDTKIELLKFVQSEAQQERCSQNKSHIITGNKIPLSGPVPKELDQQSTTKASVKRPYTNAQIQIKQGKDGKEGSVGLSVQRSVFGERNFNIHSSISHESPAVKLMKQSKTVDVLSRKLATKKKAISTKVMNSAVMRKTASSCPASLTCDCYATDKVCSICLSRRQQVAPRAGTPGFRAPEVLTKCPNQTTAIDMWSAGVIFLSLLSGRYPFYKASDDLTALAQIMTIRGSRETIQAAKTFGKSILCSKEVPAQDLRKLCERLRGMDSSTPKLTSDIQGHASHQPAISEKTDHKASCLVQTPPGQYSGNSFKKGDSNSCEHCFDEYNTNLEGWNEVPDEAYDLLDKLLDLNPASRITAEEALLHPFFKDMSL
T1 sequence (Q9UBU7 whole entry partner): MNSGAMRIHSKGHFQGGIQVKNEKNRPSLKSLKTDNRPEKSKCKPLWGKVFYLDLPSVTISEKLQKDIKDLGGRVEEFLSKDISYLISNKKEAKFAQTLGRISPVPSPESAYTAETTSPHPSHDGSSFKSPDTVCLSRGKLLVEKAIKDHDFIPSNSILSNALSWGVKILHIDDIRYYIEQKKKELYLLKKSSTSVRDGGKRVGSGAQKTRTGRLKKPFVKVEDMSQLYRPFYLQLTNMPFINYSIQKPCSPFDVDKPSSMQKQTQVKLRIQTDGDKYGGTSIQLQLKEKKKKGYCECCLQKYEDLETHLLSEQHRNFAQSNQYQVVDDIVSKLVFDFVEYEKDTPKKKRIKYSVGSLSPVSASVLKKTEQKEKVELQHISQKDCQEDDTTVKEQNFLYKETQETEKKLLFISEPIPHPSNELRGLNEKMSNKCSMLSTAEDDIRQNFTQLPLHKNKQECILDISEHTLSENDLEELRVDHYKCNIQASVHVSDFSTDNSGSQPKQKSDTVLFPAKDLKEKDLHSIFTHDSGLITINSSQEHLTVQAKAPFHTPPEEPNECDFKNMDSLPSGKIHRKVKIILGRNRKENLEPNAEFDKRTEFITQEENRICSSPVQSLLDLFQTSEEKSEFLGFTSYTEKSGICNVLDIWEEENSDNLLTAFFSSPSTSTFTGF

Row | SMILES | IC50 [1] | HLM % (remaining % of parent compound) [2] [%] | MLM % (remaining % of parent compound) [3] [%] | fold stronger inhibitory potency at 5 μM ATP than inhibition at 10 μM ATP concentration [4] [fold] | metabolic stability in human liver microsome (in words) ([2]; human) | metabolic stability in mice (in words) ([3]; mouse) | stability of the ethyl ester ([5]; conventional ester hydrolysis conditions: 2N HCl aq./EtOH, 60° C. or 2N NaOH aq./EtOH, 60° C.) | stability of the ethyl ester ([5]; strong basic conditions, hydrolysis required 50% w/v KOH aq., reflux)
1 | CCOC(=O)C1=C(Nc2ccccc2F)OC(=Cc2c[nH]c3ncccc23)C1=O [Compound 19, Ethyl 5-[(1H-pyrrolo[2,3-b]pyridin-3-yl)methylene]-2-[(2-fluorophenyl)amino]-4-oxo-4,5-dihydrofuran-3-carboxylate] | 2.4 nM | 30 | 10 |  |  |  |  | 
2 | CCOC(=O)C1=C(Nc2ccc(F)cc2)OC(=Cc2c[nH]c3ncccc23)C1=O [Compound 20, Ethyl 5-((1H-pyrrolo[2,3-b]pyridin-3-yl)methylene)-2-((4-fluorophenyl)amino)-4-oxo-4,5-dihydrofuran-3-carboxylate] | 4.3 nM | 52 | 25 |  |  |  |  | 
3 | CCOC(=O)C1=C(Nc2ccccc2)OC(=Cc2c[nH]c3ncccc23)C1=O [Compound 3, Ethyl 5-((1H-pyrrolo[2,3-b]pyridin-3-yl)methylene)-4-oxo-2-(phenylamino)-4,5-dihydrofuran-3-carboxylate] | 3.3 nM and 3.8 nM | 23 | 7.9 | 21 | moderate metabolic stability | rapidly metabolized | very stable | very stable
4 | CCOC(=O)C1=C(Nc2ccc(F)cc2F)OC(=Cc2c[nH]c3ncccc23)C1=O [Compound 23, Ethyl 5-((1H-pyrrolo[2,3-b]pyridin-3-yl)methylene)-2-((2,4-difluorophenyl)amino)-4-oxo-4,5-dihydrofuran-3-carboxylate] | 2.5 nM | 57 | 12 |  |  |  |  | 
5 | CCOC(=O)C1=C(Nc2ccccc2C)OC(=Cc2c[nH]c3ncccc23)C1=O [Compound 21, Ethyl 5-((1H-pyrrolo[2,3-b]pyridin-3-yl)methylene)-4-oxo-2-(o-tolylamino)-4,5-dihydrofuran-3-carboxylate] | 3.8 nM | 53 | 24 |  |  |  |  | 
6 | CCOC(=O)C1=C(Nc2ccc(C)cc2C)OC(=Cc2c[nH]c3ncccc23)C1=O [Compound 24, Ethyl 5-((1H-pyrrolo[2,3-b]pyridin-3-yl)methylene)-2-((2,4-dimethylphenyl)amino)-4-oxo-4,5-dihydrofuran-3-carboxylate] | 3.9 nM | 63 | 30 |  |  |  |  | 
7 | CCOC(=O)C1=C(Nc2ccc(OC)cc2)OC(=Cc2c[nH]c3ncccc23)C1=O [Compound 18, Ethyl 5-((1H-pyrrolo[2,3-b]pyridin-3-yl)methylene)-2-((4-methoxyphenyl)amino)-4-oxo-4,5-dihydrofuran-3-carboxylate] | 4.9 nM | 33 | 5.1 |  |  |  |  | 
